What was measured:
[1] = system: angiotensin II receptor; experiment: Screening Potential Angiotensin II Receptor Antagonists in Salt-Depleted Normotensive Rats; type: in vivo, rat (Sprague-Dawley)
Procedure: 2. Test Procedure for Screening Potential Angiotensin II Receptor Antagonists in Salt-Depleted Normotensive Rats
Purpose: This test is designed to detect hypotensive effects of a compound after oral dosing in normotensive animals made renin-dependent by salt depletion.
Method: Male 350-450 g Sprague-Dawley rats are implanted with teflon microcannulae via the middle caudal artery under 20 mg/kg intravenous Brevital® anesthesia and permitted a 4-7 day surgical recovery period. Throughout recovery and testing animals are individually housed unrestrained in standard rat metabolism cages and receive continuous 0.5 ml/h intra-arterial 0.25N saline infusion through a spring-shielded swivelling tether connected to an infusion/blood pressure recording system to maintain arterial cannula patency. Animals are maintained on Low Sodium (0.03%) Purina Rat Chow #5881 throughout the study. After the recovery period animals are given oral 50 mg/kg furosemide (Lasix, Hoechst-Roussel Pharmaceutical) doses on two consecutive days to produce marked diuresis and plasma volume depletion that makes maintenance of normal blood pressure highly dependent on function of the renin-angiotensin-aldosteronesystem. Three hours after the second furosemide dose, rats are given test compound uniformly suspended in 1% methylcellulose (n=3/dose level) or 1 mL 1% methylcellulose vehicle (n=3) orally by gavage and blood pressure is continuously recorded for 24 h using a Buxco computerized data recording system. Compound-induced changes in blood pressure are compared to concurrent vehicle control blood pressures in order to detect drug effect.
Interpretation: Prior to salt depletion, normotensive rats typically show a plasma renin activity (PRA, ng angiotensin I/mL plasma/h, RIA) of 0.7. After the salt-depletion protocol PRA values taken 3 h after the furosemide dose have risen to about 7.4.
Compounds that decrease blood pressure 10 or more mmHg (MAP) compared to concurrent control after oral dosing are considered active in this test. Maximum possible response is about -35 mmHg. […]

[2] = target: T1, angiotensin II receptor (Oryctolagus cuniculus, UniProt P34976)
T1 sequence (P34976 1-359): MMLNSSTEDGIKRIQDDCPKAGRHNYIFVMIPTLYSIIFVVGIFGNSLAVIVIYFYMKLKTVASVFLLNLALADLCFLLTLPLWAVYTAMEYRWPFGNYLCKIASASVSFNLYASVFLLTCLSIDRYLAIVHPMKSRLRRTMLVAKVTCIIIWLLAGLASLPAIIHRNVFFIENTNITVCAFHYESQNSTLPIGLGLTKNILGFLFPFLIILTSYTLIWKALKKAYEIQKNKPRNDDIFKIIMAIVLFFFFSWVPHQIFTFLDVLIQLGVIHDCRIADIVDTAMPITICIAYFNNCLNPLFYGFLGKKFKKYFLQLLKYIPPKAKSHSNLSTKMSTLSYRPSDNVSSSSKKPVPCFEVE
Text: Inhibition of Angiotensin II Dose-Response in Rabbit Thoracic Aorta:
Purpose: To identify competitive receptor antagonists of an angiotensin II-1 activity, i.e., angiotensin II-induced vasoconstriction in in vitro aortic rings.
Procedure: 1.8 to 2.3 kg New Zealand white rabbits are sacrificed with an intravenous sodium pentobarbital overdose and the thoracic aorta gently dissected free from the aortic root to the level of the diaphragm, into ice cold Krebs bicarbonate buffer. The aorta is gently freed of clots and adventitia and cleanly cut with a scalpel into 5 mm segments. Each ring is suspended from a Gould isotonic force transducer in a tissue bath containing 15 mL oxygenated Krebs bicarbonate buffer regulated at 37° C. Initial tension is adjusted to 4.0 g and equilibrated over three 20-min wash periods to achieve a baseline tension of 3.0 g. Graded angiotensin II doses are given cumulatively to achieve a maximal contraction. Three 20-min washes are performed to remove the initial angiotensin II effect. […]
Analysis: Angiotensin II vasoconstrictor tension in grams is expressed as a percent of maximal contraction for the before and after test compound angiotensin II dose-responses. Angiotensin II ED50 and ED90 values are determined from the angiotensin II dose-response curves generated before and after test compound. […]

[3] = system: angiotensin II receptor; experiment: Oral activity in the spontaneously hypertensive rat, as determined in test procedure 2; type: in vivo

Structure (SMILES) | blood pressure response ([1]; normotensive rats that have not been salt-depleted) | plasma renin activity (PRA) ([1]; salt-depleted rats after DuP-753 treatment, RIA) | blood pressure decrease (mean arterial pressure, MAP) ([1]; salt-depleted rats, typical response) | Kb [2] | maximum mean arterial pressure drop [3] | oral activity [3] | duration ([3]; duration of blood pressure effect)
CCCCc1nc(Cl)c(CO)n1Cc1ccc(-c2ccccc2-c2nn[nH]n2)cc1 [DuP-753] | does not change | about 41.4 ng angiotensin I/mL plasma/h | about 35 mmHg |  |  |  | 
C[C@@H]1CN(Cc2ccc(-c3ccccc3-c3nn[nH]n3)cc2)C[C@H](C)O1 [cis-2,6-Dimethyl-4-[4-(2'-tetrazolophenyl)phenylmethyl]morpholine] |  |  |  | 0.123 µM | 31 mm Hg | good oral activity | 12 h

Reference: US5256658A, “Angiotensin II inhibitors” (Ortho Pharmaceutical Corporation, priority 1993, dated 1993)
